Assay [1] in a line: A cytotoxicity screen of small molecule inhibitors of the PhoP region in Salmonella typhi identified in the primary screen. [Related pubchem assays: 1850, 1864, 1985 ]. The format is functional.
Assay [2] in a line: Luminescence Cell-Based Dose Retest to Confirm Inhibitors of Cancer Stem Cells. [Related pubchem assays (depositor defined):AID2717, AID2721]. The class given is functional. The following applies: Homo sapiens.
Assay [3] deals with FAD-linked sulfhydryl oxidase ALR (Homo sapiens, UniProt P55789). The experiment in a line: inhibitors of human ALR sulfhydryl oxidase, dose response, biochemical, H2O2 detection, luminescence, cherry-pick (AID 493248).
Assay [4] in a line: M. tuberculosis H37Rv growth inhibitors, H37Rv strain (AID 1626). The class given is functional.
The nature of assay [5]: Luminescence Cell-Based Dose Confirmation to Identify Activators of 5'UTR Stem-Loop Driven Alpha-Synuclein mRNA Translation in H4 Neuroglioblastoma Cells. [Related pubchem assays: 1829 (Project Summary), 1814 (Primary HTS)]. The class given is functional.
Assay [6] can be described thus: Luminescence Cell-Based Dose Response HTS to Identify Activators of Luciferase Translation or Activity in H4 […] Cells. [Related pubchem assays: 1829 (Project Summary), 1814 (Primary HTS)]. The format is functional.
A short description of assay [7]: Luminescence Cell-Based Dose Response to Identify Activators of Luciferase Translation or Activity in H4-C Neuroglioblastoma Cells. [Related pubchem assays: 1829 (Project Summary), 1814 (Primary HTS)]. The format is functional.
The target of assay [8] is T1, Sentrin-specific protease 7 (Homo sapiens, UniProt Q9BQF6).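 Note: Luminescence-based dose-response confirmation of ultra-high-throughput screening hits, measuring inhibition of SENP7.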
T1 sequence (Q9BQF6 whole entry): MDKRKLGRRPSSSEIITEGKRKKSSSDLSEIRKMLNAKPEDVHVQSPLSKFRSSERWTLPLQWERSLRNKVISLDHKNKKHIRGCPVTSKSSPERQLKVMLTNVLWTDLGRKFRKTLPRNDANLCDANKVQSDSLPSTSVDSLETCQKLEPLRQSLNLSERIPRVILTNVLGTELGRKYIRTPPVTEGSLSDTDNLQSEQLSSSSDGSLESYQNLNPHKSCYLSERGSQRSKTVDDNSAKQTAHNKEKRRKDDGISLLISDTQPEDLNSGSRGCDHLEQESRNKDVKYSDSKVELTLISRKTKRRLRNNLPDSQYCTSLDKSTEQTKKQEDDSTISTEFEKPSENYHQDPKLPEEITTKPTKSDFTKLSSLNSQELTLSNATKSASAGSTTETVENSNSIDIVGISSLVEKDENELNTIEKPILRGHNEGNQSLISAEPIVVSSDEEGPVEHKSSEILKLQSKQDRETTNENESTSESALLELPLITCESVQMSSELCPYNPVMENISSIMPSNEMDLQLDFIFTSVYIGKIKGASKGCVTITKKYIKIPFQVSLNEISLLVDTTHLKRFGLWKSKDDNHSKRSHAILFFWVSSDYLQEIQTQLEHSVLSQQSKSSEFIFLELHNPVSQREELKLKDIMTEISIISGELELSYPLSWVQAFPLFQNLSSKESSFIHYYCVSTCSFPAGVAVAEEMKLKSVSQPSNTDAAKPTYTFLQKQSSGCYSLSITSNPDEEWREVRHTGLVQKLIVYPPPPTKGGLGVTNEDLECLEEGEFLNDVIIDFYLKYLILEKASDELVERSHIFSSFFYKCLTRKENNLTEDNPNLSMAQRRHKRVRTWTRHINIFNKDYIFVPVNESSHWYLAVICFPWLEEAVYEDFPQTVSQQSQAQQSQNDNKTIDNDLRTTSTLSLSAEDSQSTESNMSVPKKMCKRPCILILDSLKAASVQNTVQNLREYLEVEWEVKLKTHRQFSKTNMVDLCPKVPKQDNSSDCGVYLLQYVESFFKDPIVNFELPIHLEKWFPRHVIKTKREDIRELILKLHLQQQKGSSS
The format is functional.

The nature of assay [9]: Luminescence Cell-Based Dose Confirmation HTS to Identify Activators of 5'UTR Stem-Loop Driven Alpha-Synuclein mRNA Translation in H4 Neuroglioblastoma Cells. [Related pubchem assays: 1829 (Project Summary), 1814 (Primary HTS)]. The format is functional.
For assay [10], the target named is T2, Sentrin-specific protease 6 (Homo sapiens, UniProt Q9GZR1).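 Note: Luminescence-based dose-response confirmatory assay of SENP6 inhibition, following up an ultra-high-throughput screen.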
T2 sequence (Q9GZR1 whole entry): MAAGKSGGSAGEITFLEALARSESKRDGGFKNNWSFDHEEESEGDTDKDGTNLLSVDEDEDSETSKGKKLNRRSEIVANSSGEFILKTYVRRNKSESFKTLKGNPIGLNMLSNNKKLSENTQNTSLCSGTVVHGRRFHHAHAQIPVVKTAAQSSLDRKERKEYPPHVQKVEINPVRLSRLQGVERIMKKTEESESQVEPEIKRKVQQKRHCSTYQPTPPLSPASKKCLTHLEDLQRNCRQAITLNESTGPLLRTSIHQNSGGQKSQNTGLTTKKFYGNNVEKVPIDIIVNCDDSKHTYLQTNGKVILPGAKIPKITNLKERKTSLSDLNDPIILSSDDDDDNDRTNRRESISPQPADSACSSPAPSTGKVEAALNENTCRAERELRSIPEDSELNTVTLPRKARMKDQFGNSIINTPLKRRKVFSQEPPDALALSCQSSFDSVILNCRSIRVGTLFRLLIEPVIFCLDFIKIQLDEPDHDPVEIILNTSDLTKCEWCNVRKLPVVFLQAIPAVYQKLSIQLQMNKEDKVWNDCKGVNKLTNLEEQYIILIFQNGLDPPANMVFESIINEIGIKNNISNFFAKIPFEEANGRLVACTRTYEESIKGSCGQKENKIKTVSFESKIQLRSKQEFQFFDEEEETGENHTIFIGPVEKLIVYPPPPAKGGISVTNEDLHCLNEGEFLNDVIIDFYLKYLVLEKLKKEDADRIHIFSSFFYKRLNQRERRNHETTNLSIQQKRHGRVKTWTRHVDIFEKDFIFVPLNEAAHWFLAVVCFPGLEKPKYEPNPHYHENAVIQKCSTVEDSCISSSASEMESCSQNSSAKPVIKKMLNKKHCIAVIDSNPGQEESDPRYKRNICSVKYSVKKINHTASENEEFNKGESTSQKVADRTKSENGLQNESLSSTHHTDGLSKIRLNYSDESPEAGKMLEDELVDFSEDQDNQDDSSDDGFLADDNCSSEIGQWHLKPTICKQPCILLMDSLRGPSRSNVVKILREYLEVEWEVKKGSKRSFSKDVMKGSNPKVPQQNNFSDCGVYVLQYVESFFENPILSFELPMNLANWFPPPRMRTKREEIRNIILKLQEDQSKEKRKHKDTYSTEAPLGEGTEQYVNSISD
The class given is functional.

Another assay deals with T3, Caspase-3 (Homo sapiens, UniProt P42574).
T3 sequence (P42574 whole entry): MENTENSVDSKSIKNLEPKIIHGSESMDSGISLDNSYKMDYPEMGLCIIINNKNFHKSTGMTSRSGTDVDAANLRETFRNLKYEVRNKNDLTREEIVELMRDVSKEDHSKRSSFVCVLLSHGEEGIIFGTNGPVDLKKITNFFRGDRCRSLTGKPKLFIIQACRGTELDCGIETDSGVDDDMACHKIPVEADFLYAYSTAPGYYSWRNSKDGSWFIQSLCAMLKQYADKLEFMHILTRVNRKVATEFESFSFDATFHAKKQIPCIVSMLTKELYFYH
The class given is functional.

The target of assay [11] is T4, Sentrin-specific protease 8 (Homo sapiens, UniProt Q96LD8).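 Note: luminescence read-out of SENP8 inhibition, dose-response confirmation following an ultra-high-throughput screen.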
T4 sequence (Q96LD8 whole entry): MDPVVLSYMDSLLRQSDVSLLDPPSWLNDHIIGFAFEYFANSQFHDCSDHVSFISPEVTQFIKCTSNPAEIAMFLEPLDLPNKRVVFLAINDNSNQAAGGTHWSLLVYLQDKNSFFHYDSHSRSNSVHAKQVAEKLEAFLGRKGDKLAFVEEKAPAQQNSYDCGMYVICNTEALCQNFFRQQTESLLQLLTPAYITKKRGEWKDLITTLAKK
The format is functional.

A short description of assay [12]: Luminescence Cell-Based Dose Response to Identify Activators of 5'UTR Stem-Loop Driven Prion Protein mRNA Translation in H4-C Neuroglioblastoma Cells. [Related pubchem assays: 1829 (Project Summary), 1814 (Primary HTS)]. The format is functional.
The test system of the next assay is H4. The experiment in a line: Luminescence Cell-Based Dose Response HTS to Identify Activators of 5'UTR Stem-Loop Driven Prion Protein mRNA Translation in H4 Neuroglioblastoma Cells. [Related pubchem assays: 1829 (Project Summary), 1814 (Primary HTS)]. The format is functional. As to conditions: Homo sapiens.
Assay [13] deals with T5, Mannose-6-phosphate isomerase (Homo sapiens, UniProt P34949).
T5 sequence (P34949 whole entry): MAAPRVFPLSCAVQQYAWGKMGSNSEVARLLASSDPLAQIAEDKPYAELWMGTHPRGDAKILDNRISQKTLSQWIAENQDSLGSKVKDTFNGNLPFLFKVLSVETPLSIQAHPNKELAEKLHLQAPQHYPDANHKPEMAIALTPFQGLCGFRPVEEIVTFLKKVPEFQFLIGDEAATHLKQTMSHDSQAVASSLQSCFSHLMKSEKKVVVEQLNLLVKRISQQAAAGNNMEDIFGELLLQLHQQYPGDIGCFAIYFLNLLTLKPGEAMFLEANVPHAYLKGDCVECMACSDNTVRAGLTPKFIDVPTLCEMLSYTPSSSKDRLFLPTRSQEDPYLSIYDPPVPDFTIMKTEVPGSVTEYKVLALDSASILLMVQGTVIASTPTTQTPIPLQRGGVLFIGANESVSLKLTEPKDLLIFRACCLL
The experiment in a line: inhibitors of human PMI, primary screen, biochemical, fluorescence intensity, coupled assay (AID 1209).

The target of assay [14] is T5, Mannose-6-phosphate isomerase. In words: human PMI inhibitors, high substrate, primary screen, biochemical, fluorescence intensity, high mannose 6-phosphate (AID 1220).

Molecules are shown by their SMILES. Active and inactive are the calls of the source. Where only a bound is given, the exact number is not on record here.

Chain of FAD-linked sulfhydryl oxidase ALR (P55789 whole entry): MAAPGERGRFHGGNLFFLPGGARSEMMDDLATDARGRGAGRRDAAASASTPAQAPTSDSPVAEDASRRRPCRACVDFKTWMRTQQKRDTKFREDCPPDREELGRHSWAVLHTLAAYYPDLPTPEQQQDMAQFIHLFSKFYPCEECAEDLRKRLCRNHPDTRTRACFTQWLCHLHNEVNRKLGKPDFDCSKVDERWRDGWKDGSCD

In the case of `O=C(NCc1ccco1)c1ccc2c(c1)N(Cc1ccccc1)CCS2`, the EC50 (usually the midpoint of the concentration-response curve) in assay [1] was > 50 µM (active). The AC50 (usually the midpoint of the concentration-response curve, whichever way the signal moves) in [2] was 11.3 µM (active); in assay [3] it was 81.2 µM (active).
With `CCOC(=O)c1ccc(NC(C)=C2C(=O)NC(=O)NC2=O)cc1`, in assay [4], the IC50 (in general, the midpoint of a concentration-inhibition curve) is > 100 µM (active).
For the molecule `CCCCC(=O)Nc1ccc2c(c1)oc1ccccc12`, in assay [4], the IC50 was > 100 µM (active).
With `COc1ccc(NC2=CC(c3ccc(OC)cc3)N(c3ccc(OC)cc3)C2=O)cc1` (centres undefined), the IC50 in [4] was > 100 µM (active).
As for `O=C1c2ccccc2C(=O)N1CCSc1ccccc1`, the concentration for a half-maximal effect (EC50) is 0.279 µM (active) in [5]; 0.18 µM (active) in assay [6]; 0.42 µM (active) in [7]; 21.9 µM (active) in [9]; 1.41 µM (active) in assay [12]; < 0.1 µM (active) in the assay with H4. Moreover, the IC50 in assay [8] was 9.56 µM (active); in assay [10], 30.4 µM (active); on Caspase-3, 14.5 µM (active); in [11], 35 µM (active).
On to `CC(C)CCSc1cc(NCCO)c([N+](=O)[O-])c2nonc12`, for which the IC50 in [13] and in assay [14] was > 50 µM (not active) in each case.
On to `c1ccc(CSCc2cn3ccsc3n2)cc1`, for which the EC50 was 40.7 µM (active) in assay [6], 0.562 µM (active) in assay [9] and 7.85 µM (active) in the assay with H4. Besides, the IC50 in assay [13] and in [14] was > 50 µM (not active) throughout.
On to `C=CCSc1nnc(NC(=O)CSc2nc3ccccc3o2)s1`, for which the EC50 in assay [1] is > 50 µM (active).

Values taken from ChEMBL document CHEMBL1201862, “PubChem BioAssay data set” (2004).
